The values that follow come from patent publication US8173682B2, “Substituted pyridones as inhibitors of poly(ADP-ribose) polymerase (PARP)” (Aventis Pharmaceuticals Inc., priority 2004, dated 2012).

Counter-ions that a name gives are not always drawn.

In the experiment the target is T1, recombinant human PARP (PARP1) (Homo sapiens, UniProt P09874).
T1 construct: Full length human PARP (PARP1) is assembled from PCR fragments; His6 tag with TEV site, from the pFastBac-HTb vector (own knowledge of the vector); made in house; host or cells: insect cells, baculovirus (Bac-to-Bac, Gibco-BRL)
The experiment is described as follows: PARP enzyme assay, Method A (radioactivity or 'ELISA' enzyme assay with partially purified enzyme). Conditions: recombinant human PARP preparation, radioactive or ELISA enzyme assay. The format is biochemical. The gist of the method:
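Partially purified recombinant full-length His-tagged human PARP1, baculovirus-expressed. Radioactive format: 100 μg/mL sonicated DNA, 100 μg/mL histones, 100 mM Tris pH 8.0, 10 mM MgCl2, 200 μM labeled NAD, 10 min 37 °C or 60 min RT, TCA-precipitated counts. ELISA format: 250 μM NAD plus biotin-NAD on histone plates, TMB A450.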
On the technique in general: ELISA stands for enzyme-linked immunosorbent assay.

T1 sequence (P09874 whole entry, the tested form may be a part): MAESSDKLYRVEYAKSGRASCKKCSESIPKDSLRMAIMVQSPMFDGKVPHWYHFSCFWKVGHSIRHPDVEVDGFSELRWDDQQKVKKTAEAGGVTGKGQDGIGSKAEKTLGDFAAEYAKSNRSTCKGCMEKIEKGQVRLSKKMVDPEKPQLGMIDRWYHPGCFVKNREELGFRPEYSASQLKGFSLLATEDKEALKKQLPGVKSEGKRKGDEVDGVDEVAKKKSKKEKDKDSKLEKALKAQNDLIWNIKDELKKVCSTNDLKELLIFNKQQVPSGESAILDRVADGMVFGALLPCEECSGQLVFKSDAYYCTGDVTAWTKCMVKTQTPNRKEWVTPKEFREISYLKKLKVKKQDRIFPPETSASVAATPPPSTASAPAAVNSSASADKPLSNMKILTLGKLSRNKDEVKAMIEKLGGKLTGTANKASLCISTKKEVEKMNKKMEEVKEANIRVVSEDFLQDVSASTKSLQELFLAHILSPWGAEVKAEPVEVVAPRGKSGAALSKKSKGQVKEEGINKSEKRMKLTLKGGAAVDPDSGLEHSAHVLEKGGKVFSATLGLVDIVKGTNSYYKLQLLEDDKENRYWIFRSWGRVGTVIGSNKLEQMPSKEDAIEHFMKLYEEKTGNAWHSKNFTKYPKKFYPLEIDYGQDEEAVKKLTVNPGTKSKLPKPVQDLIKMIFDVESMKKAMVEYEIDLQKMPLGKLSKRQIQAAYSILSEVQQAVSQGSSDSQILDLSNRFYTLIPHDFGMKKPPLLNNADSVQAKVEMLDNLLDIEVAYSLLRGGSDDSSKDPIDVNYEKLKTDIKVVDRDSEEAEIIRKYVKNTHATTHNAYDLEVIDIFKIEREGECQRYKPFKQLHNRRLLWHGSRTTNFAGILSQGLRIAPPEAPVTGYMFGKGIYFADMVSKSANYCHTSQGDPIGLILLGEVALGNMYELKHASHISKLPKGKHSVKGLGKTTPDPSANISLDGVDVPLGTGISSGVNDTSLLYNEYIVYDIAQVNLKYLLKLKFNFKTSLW

`CCc1cc(-c2ccc(S(=O)(=O)NCCCN3CCCC3=O)s2)c(C)[nH]c1=O` [Example 68, 5-[5-Ethyl-2-methyl-6-oxo-1,6-dihydropyridin-3-yl]thiophene-2-sulfonic acid [3-(2-oxopyrrolidin-1-yl)propyl]amide]: the IC50 worked out at 1.9 µM.

In the case of `CCc1cc(-c2ccc(CN3CCC4(CC3)OCCO4)s2)c(C)[nH]c1=O` [Example 149, 5-[5-(1,4-Dioxa-8-aza-spiro[4,5]dec-8-ylmethy)-thiophen-2-yl)-3-ethyl-6-methyl-1H-pyridin-2-one hydrochloride], the IC50 was 0.79 µM.

Regarding `CCc1cc(-c2ccc(S(=O)(=O)N3CCN(CCCN4CCCC4)CC3)s2)c(C)[nH]c1=O` [Example 62, 3-Ethyl-6-methyl-5-{5-[4-(3-pyrrolidin-1-yl)propylpiperazine-1-sulfonyl]thiophen-2-yl}-1H-pyridin-2-one dihydrochloride], the IC50 stood at 0.6 µM.

Take `CCc1cc(-c2ccc(CNC3CCC3)s2)c(C)[nH]c1=O` [Example 137, 5-(5-Cyclobutylaminomethyl-thiophen-2-yl)-3-ethyl-6-methyl-1H-pyridin-2-one hydrochloride]: the IC50 turned out to be 0.52 µM.

For `CCc1cc(-c2ccc(CNCc3ccc(Cl)cc3)s2)c(C)[nH]c1=O` [Example 168, 5-{5-[(4-chlorobenzylamino)methyl]thiophen-2-y}]-3-ethyl-6-methyl-1H-pyridin-2-one hydrochloride], the IC50 was 0.4 µM.

Take `CCc1cc(-c2ccc(CNCc3nccn3C)s2)c(C)[nH]c1=O` [Example 161, 3-Ethyl-6-methyl-5-(5-{[(1-methyl-1H-imidazol-2-yl)methyl)amino]methyl}-thiophen-2-yl)-1H-pyridin-2-one dihydrochloride]: the IC50 was determined as 1.3 µM.

As for `CCc1cc(-c2ccc(S(=O)(=O)N3CCN(Cc4ccncc4)CC3)s2)c(C)[nH]c1=O` [Example 58, 3-Ethyl-6-methyl-5-[5-(4-pyridin-4-yl)methylpiperizine-1-sulfonyl]thiophen-2-yl}1H-pyridin-2-one dihydrochloride], the IC50 amounted to 2.3 µM.

Consider `CCc1cc(-c2ccc(S(=O)(=O)NCc3ccc(C)o3)s2)c(C)[nH]c1=O` [Example 35, 5-(5-Ethyl-2-methyl-6-oxo-1,6-dihydropyridin-3-yl)thiophene-2-sulfonic acid (5-methylfuran-2-yl)methylamide], for which the IC50 was 10.9 µM.

`CCc1cc(-c2ccc(S(=O)(=O)NC3CCN(Cc4ccncc4)CC3)s2)c(C)[nH]c1=O` [Example 82, 5-[5-Ethyl-2-methyl-6-oxo-1,6-dihydropyridin-3-yl]thiophene-2-sulfonic acid [1-(pyridin-4-yl)methyl(piperidin-4-yl)]amide dihydrochloride]: the concentration for half-maximal inhibition (IC50) is 0.48 µM.

Turning to `CCc1cc(-c2ncno2)c(C)[nH]c1=O` [Example 18, 3-Ethyl-6-methyl-5-(1,2,4-oxadiazol-5-yl)-1H-pyridin-2-one], the 50% inhibitory concentration (IC50) amounted to 0.65 µM.

In the case of `CCc1cc(-c2ccc(S(=O)(=O)N3CCN(c4ccccc4)CC3)s2)c(C)[nH]c1=O` [Example 24, 3-Ethyl-6-methyl-5-[5-(4-phenylpiperazine-1-sulfonyl)thiophen-2-yl]-1H-pyridin-2-one], the IC50 stood at 0.63 µM.

On to `CCc1cc(-c2ccc(CN3CCC(N4CCCCC4)CC3)s2)c(C)[nH]c1=O` [Example 129, 5-(5-[1,4′]Bipiperidinyl-1′-ylmethyl-thiophen-2-yl)-3-ethyl-6-methyl-1H-pyridin-2-one dihydrochloride], for which the IC50 came to 1.8 µM.

Regarding “5-(5-Ethyl-2-methyl-6-oxo-1,6-dihydropyridin-3-yl)thiophene-2-sulfonic acid (2-1′-[5-(5-ethyl-2-methyl-6-oxo-1,6-dihydropyridin-3-yl)thiophene-2-sulfonyl]-1H-imidazol-4-yl}ethyl)amide hydrochloride [Example 40]”, the IC50 amounted to 0.13 µM.

Consider `CCc1cc(-c2ccc(S(=O)(=O)NCCN3CCOCC3)s2)c(C)[nH]c1=O` [Example 38, 5-(5-Ethyl-2-methyl-6-oxo-1,6-dihydropyridin-3-yl)thiophene-2-sulfonic acid (2-morpholin-4-yl)ethylamide hydrochloride], for which the IC50 stood at 0.77 µM.

Consider `CCc1cc(-c2ccc(CNC3CCCC3)s2)c(C)[nH]c1=O` [Example 189, 5-(5-Cyclopentylaminomethylthiophen-2-yl)-3-ethyl-6-methyl-1H-pyridin-2-one hydrochloride], for which the IC50 was determined as 0.41 µM.

As to `CCc1cc(-c2ccc(S(=O)(=O)NCCCN(CC)CC)s2)c(C)[nH]c1=O` [Example 96, 5-(5-Ethyl-2-methyl-6-oxo-1,6-dihydropyridin-3-yl)-thiophene-2-sulfonic acid (3-diethylaminopropyl)amide hydrochloride], the IC50 worked out at 0.72 µM.

`CCc1cc(-c2ccc(S(=O)(=O)NCc3nccn3C)s2)c(C)[nH]c1=O` [Example 80, 5-[5-Ethyl-2-methyl-6-oxo-1,6-dihydropyridin-3-yl]thiophene-2-sulfonic acid (1-methylimidazol-2-yl)methyl]amide hydrochloride]: the IC50 came to 0.43 µM.

As for `CCc1cc(-c2ccc(CN3CCC(OC)C3)s2)c(C)[nH]c1=O` (stereo not shown) [Example 174, 3-Ethyl-5-{5-[(3-methoxypyrrolidin-1-ylmethyl)(thiophen-2-yl)-6-methyl-1H-pyridin-2-one hydrochloride], the IC50 turned out to be 1.3 µM.

Regarding `CCc1cc(-c2ccc(S(=O)(=O)N3CCC(N4CCCCC4)CC3)o2)c(C)[nH]c1=O` [Example 51, 3-Ethyl-6-methyl-5-[5-(4-piperidin-1-yl)piperidine-1-sulfonylfuran-2-yl]-1H-pyridin-2-one hydrochloride], the IC50 was 0.22 µM.

In the case of `CCc1cc(-c2ccc(S(=O)(=O)NCc3ccc4c(c3)OCO4)s2)c(C)[nH]c1=O` [Example 103, 5-(5-Ethyl-2-methyl-6-oxo-1,6-dihydropyridin-3-yl)-thiophene-2-sulfonic acid (1,3-benzodioxol-5-ylmethyl)amide], the IC50 came to 0.14 µM.

For `CCc1cc(-c2ccc(CN3CCC(O)CC3)s2)c(C)[nH]c1=O` [Example 127, 3-Ethyl-5-[5-(4-hydroxy-piperidin-1-ylmethyl)-thiophen-2-yl]-6-methyl-1H-pyridin-2-one hydrochloride], the half-maximal inhibitory concentration (IC50) came out at 0.67 µM.

With `CCc1cc(-c2ccc(CNCc3cccc(OC)c3)s2)c(C)[nH]c1=O` [Example 167, 5-{5-[(3-Methoxybenzylamino)methyl]thiophen-2-y}]-3-ethyl-6-methyl-1H-pyridin-2-one hydrochloride], the IC50 is 0.55 µM.

Consider `CCc1cc(-c2ccc(S(=O)(=O)N3CCN(CCN(C)C)CC3)s2)c(C)[nH]c1=O` [Example 64, 5-{5-[4-(2-Dimethylaminoethyl)piperazine-1-sulfonyl]thiophen-2-yl}-3-ethyl-6-methyl-1H-pyridn-2-one dihydrochloride], for which the IC50 came to 1.5 µM.

Regarding `CCc1cc(-c2ccc(CN3CCC(O)(c4ccccc4)CC3)s2)c(C)[nH]c1=O` [Example 185, 3-Ethyl-5-[5-(4-hydroxy-4-phenylpiperidin-1-ylmethyl)thiophen-2-yl]-6-methyl-1H-pyridin-2-one hydrochloride], the IC50 is 1.8 µM.

On to `CCc1cc(-c2ccc(S(=O)(=O)NCCC3CCCN3C)s2)c(C)[nH]c1=O` (stereo not shown) [Example 36, 5-(5-Ethyl-2-methyl-6-oxo-1,6-dihydropyridin-3-yl)thiophene-2-sulfonic Acid [2-(1-methylpyrrolidin-2-yl)ethyl]amide hydrochloride], for which the IC50 was 3.7 µM.

With `CCc1cc(-c2ccc(CNC3CCCCC3)s2)c(C)[nH]c1=O` [Example 190, 5-(5-Cyclohexylaminomethylthiophen-2-yl)-3-ethyl-6-methyl-1H-pyridin-2-one hydrochloride], the IC50 worked out at 0.54 µM.

Consider `CCc1cc(-c2ccc(S(=O)(=O)NCC(C)O)s2)c(C)[nH]c1=O` (stereo not shown) [Example 113, 5-(5-Ethyl-2-methyl-6-oxo-1,6-dihydropyridin-3-yl)thiophene-2-sulfonic acid (2-hydroxypropyl)amide], for which the IC50 is 0.9 µM.

Regarding `CCc1cc(-c2cccc(C#N)c2)c(C)[nH]c1=O` [Example 1, 3-(5-Ethyl-2-methyl-6-oxo-1,6-dihydropyridin-3-yl)benzonitrile], the 50% inhibitory concentration (IC50) is 0.4 µM.

Turning to `CCc1cc(-c2ncon2)c(C)[nH]c1=O` [Example 23, 3-Ethyl-6-methyl-5-(1,2,4-oxadiazol-3-yl)-1H-pyridin-2-one], the 50% inhibitory concentration (IC50) was determined as 0.67 µM.

Take `CCc1cc(-c2ccc(S(=O)(=O)N3CCN(CCOCCO)CC3)s2)c(C)[nH]c1=O` [Example 99, 3-Ethyl-5-(5-{4-[2-(2-hydroxy-ethoxy)-ethyl]-piperazine-1-sulfonyl}-thiophen-2-yl)-6-methyl-1H-pyridin-2-one hydrochloride]: the IC50 was found to be 1.3 µM.

As to `CCc1cc(-c2ncnn2C)c(C)[nH]c1=O` [Example 17, 3-Ethyl-6-methyl-5-(2-methyl-2H-1,2,4-triazol-3-yl)-1H-pyridin-2-one], the IC50 was determined as 1.7 µM.

Take `CCc1cc(-c2nc(C)no2)c(C)[nH]c1=O` [Example 19, 3-Ethyl-6-methyl-5-(3-methyl-1,2,4-oxadiazol-5-yl)-1H-pyridin-2-one]: the IC50 came to 0.23 µM.

Consider `CCc1cc(-c2ccc(CNC3Cc4ccccc4C3)s2)c(C)[nH]c1=O` [Example 156, 3-Ethyl-5-[5-(indan-2-ylaminomethyl)-thiophen-2-yl]-6-methyl-1H-pyridin-2-one hydrochloride], for which the IC50 was 0.44 µM.

For the compound `CCc1cc(-c2ccc(S(=O)(=O)N(C)C3CCN(C)C3)s2)c(C)[nH]c1=O` (stereo not shown) [Example 81, 5-[5-Ethyl-2-methyl-6-oxo-1,6-dihydropyridin-3-yl]thiophene-2-sulfonic acid methyl (1-methylpyrrolidin-3-yl)amide hydrochloride], the IC50 came to 0.54 µM.

For orientation: IC50 means the concentration needed to halve the response being measured.
